# Assays:
# [1] = test system: Spinal Medulla of the Cat; test: Effect on the spinal medulla of the cat; type: in vivo; conditions: 3-30 mg/kg i.v.
# [2] = test system: cGMP in the rat cerebellum; test: Effect on the cGMP levels in the rat cerebellum; type: in vivo; conditions: i.v., 1 hour after administration, saline = 100
# Method: The cGMP is measured 1 hour after administration.
# EEG in Rabbits = type: in vivo
# Method: At doses of 100 and 50 mg/kg i.v., electrical activity becomes evidently synchronous 10 minutes after administration, and lasts for about 3 hours. […] After 4 hours, behaviour and EEG become normal.
# [3] = test system: Plasmatic Prolactin Levels (PRL); test: Effect of compound (V) administered intravenously to the rat on plasmatic prolactin levels (PRL); type: in vivo
# Text: 4. Effect of Compound (V) Administered Intravenously to the Rat, on the Plasmatic Prolactin Levels (PRL)
# [4] = test system: salmonella thyphimurium, 5 different strains; test: Mutagenesis (Salmonella, 5 different strains); conditions: 1000-100-10 mcg/plate
# Text: Mutagenesis (salmonella thyphimurium, 5 different strains): 1000-100-10 mcg/plate: negative.
# Sacch. cerevisiae D4 = test: Genetic conversion; conditions: 1000-100-10 mcg/plate
# Schizosacch. pombe P1 = test: Generic mutation; conditions: 1000-100-10 mcg/plate
# Acute toxicity, rat = conditions: in vivo, observation 14 days, read-out: DL50
# Text: (§1) |Observation period: 14 days
# Acute toxicity, mouse = conditions: in vivo, observation 14 days, read-out: DL50
# Text: as §1
# animals (Rat, Mouse) = test: Acute toxicity, symptoms observed in the animals (rat, mouse); type: in vivo
# Method: Observation period: 14 days
# (+) from 500 mg/kg upwards, the animals show sedation symptoms.
# [5] = Sub-acute toxicity, 4 weeks; type: in vivo; conditions: daily oral and intra-peritoneal 10, 20 and 40 mg/kg/day
# Method: After daily oral and intra-peritoneal administration of 10,20 and 40 mg/kg/day of compound (V) for 4 weeks, no effect is observed on mortality, body weight, alimentation, hematological or urinary data, autoptic examination, weight or histology of the organs.
# [6] = orally or parenterally; cited from earlier work
# [7] = line marked (+), route not given
smiles,measurement,setting,value
"O=C(O)CCCNCCC(=O)O [Compound (V), N-β-carboxyethyl-γ-aminobutyric acid]",activity on the gamma-mononeuron,[1],dose-dependent reduction
same,dorsal root potentials,[1],dose-dependent reduction
same,mono and polysynaptic reflexes of the ventral root,[1],dose-dependent reduction
same,cGMP: Relative levels,[2]; 1 mg/kg,95 ± 8
same,cGMP: Relative levels,[2]; 10 mg/kg,68 ± 4
same,cGMP: Relative levels,[2]; 30 mg/kg,60 ± 5
same,cGMP: Relative levels,[2]; 100 mg/kg,74 ± 6
same,"basal activity, cortical graph",EEG in Rabbits; 100 and 50 mg/kg i.v.,replaced by a slow continuous activity prevalent on the cortical graph
same,behaviour (sedation),EEG in Rabbits; 100 and 50 mg/kg i.v.,"sedated, but responds to stimuli"
same,desynchronisation of cortical activity by vibro-stimulation and pain stimuli,EEG in Rabbits; 100 and 50 mg/kg i.v.,do not desynchronise cortical activity
same,duration of synchronous electrical activity,EEG in Rabbits; 100 and 50 mg/kg i.v.,about 3 hours
same,thalamus and hippocampus activity at 4-5 Hz,EEG in Rabbits; 100 and 50 mg/kg i.v.,replaced by an irregular graph and many slow waves
same,time after administration at which electrical activity becomes synchronous,EEG in Rabbits; 100 and 50 mg/kg i.v.,10 min
same,time after which behaviour and EEG become normal,EEG in Rabbits; 100 and 50 mg/kg i.v.,4 h
same,sedative activity,"EEG in Rabbits; conclusion from EEG in rabbits, i.v.",demonstrates sedative activity
same,overcoming of the hematoencephalic barrier,"EEG in Rabbits; rabbit, in vivo, iv",overcomes the hematoencephalic barrier
same,PRL levels,"[3]; 100 mg/kg i.v., 0 min",4 ng/mL
same,PRL levels,"[3]; 100 mg/kg i.v., 15 min",18 ± 5 ng/mL
same,PRL levels,"[3]; 100 mg/kg i.v., 30 min",4 ± 6 ng/mL
same,PRL levels,"[3]; 100 mg/kg i.v., 60 min",4 ng/mL
same,PRL levels,"[3]; 200 mg/kg i.v., 0 min",4 ng/mL
same,PRL levels,"[3]; 200 mg/kg i.v., 15 min",49 ± 10 ng/mL
same,PRL levels,"[3]; 200 mg/kg i.v., 30 min",5 ± 1 ng/mL
same,PRL levels,"[3]; 200 mg/kg i.v., 60 min",4 ng/mL
same,PRL levels,"[3]; 300 mg/kg i.v., 0 min",4 ng/mL
same,PRL levels,"[3]; 300 mg/kg i.v., 15 min",78 ± 5 ng/mL
same,PRL levels,"[3]; 300 mg/kg i.v., 30 min",21 ± 8 ng/mL
same,PRL levels,"[3]; 300 mg/kg i.v., 60 min",12 ng/mL
same,effect on the prolactin release,"[3]; intravenous, short intervals after administration",dose-dependent effect on the prolactin release
same,Mutagenesis,[4],negative
same,Genetic conversion,Sacch. cerevisiae D4,doubtful
same,mutagenic activity for the gene ADE 2,Sacch. cerevisiae D4,not for the gene ADE 2
same,mutagenic activity for the gene TPR 5,Sacch. cerevisiae D4; only in the presence of a microsomial activator,a slight increase in mutagenic activity
same,Generic mutation,Schizosacch. pombe P1,negative
same,LD50 at 336 h,"Acute toxicity, rat; ip, intra-peritoneal",877 mg/kg
same,LD50 at 336 h,"Acute toxicity, rat; [7]",1000 mg/kg
same,LD50 at 336 h,"Acute toxicity, rat; oral",1000 mg/kg
same,LD50 at 336 h,"Acute toxicity, mouse; ip, intra-peritoneal",783 mg/kg
same,LD50 at 336 h,"Acute toxicity, mouse; [7]",1000 mg/kg
same,LD50 at 336 h,"Acute toxicity, mouse; oral",1000 mg/kg
same,dose from which the animals show sedation symptoms,"animals (Rat, Mouse); in vivo, po, 20160 min",≥ 500 mg/kg
same,symptoms before death,"animals (Rat, Mouse); intra-peritoneal (++)","ataxia, lack of reaction to stimuli, and dyspnea"
same,effect on alimentation,[5],no effect
same,effect on autoptic examination,[5],no effect
same,effect on body weight,[5],no effect
same,effect on hematological or urinary data,[5],no effect
same,effect on mortality,[5],no effect
same,effect on weight or histology of the organs,[5],no effect
"NCCCC(=O)O [GABA, gamma-amino butyric acid]",crossing of the blood-brain barrier (GABA),[6],does not cross the blood-brain barrier

# Source: patent US4563478A, “Method of tranquilizing” (priority 1981, dated 1986)
